Experimental data published in the supplement of paper PMC10307832.

Columns and labels:
Assay in all cases: relative viability (nuclei count vs DMSO), 5 days (fraction); higher = more cells survive
XMD13-2 + Lapatinib = compound: C1CC1C(=O)NC2=NNC3=C2C=CC(=C3)C4=CC(=CC=C4)C(=O)NC5CC5 [XMD13-2] + CS(=O)(=O)CCNCc1ccc(-c2ccc3ncnc(Nc4ccc(OCc5cccc(F)c5)c(Cl)c4)c3c2)o1 [Lapatinib] (partner 2 µM)
Outline: (§1)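 Lung cancer cell lines in 1536-well plates were dosed by pin tool the day after seeding, either with one drug alone or with a fixed anchor-drug dose plus five library-drug doses (not always all listed) in √10 steps. After 5 days, cells were fixed and their nuclei stained in one step (final 0.05% Triton X-100, 1% formaldehyde, 1 ug/ml Hoechst), then counted on 4× images. Relative viability is the nuclei count in treated wells divided by that in vehicle wells. Values are medians of duplicate plates.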

ALW-II-49-7 + Alpelisib = compound: Cc1ccc(C(=O)Nc2cccc(C(F)(F)F)c2)cc1Nc1cncc(C(N)=O)c1 [ALW-II-49-7] + Cc1nc(NC(=O)N2CCC[C@H]2C(N)=O)sc1-c1ccnc(C(C)(C)C(F)(F)F)c1 [Alpelisib] (partner 2 µM)
Outline: as §1

Dasatinib + Pictilisib = compound: Cc1nc(Nc2ncc(C(=O)Nc3c(C)cccc3Cl)s2)cc(N2CCN(CCO)CC2)n1 [Dasatinib] + CS(=O)(=O)N1CCN(Cc2cc3nc(-c4cccc5[nH]ncc45)nc(N4CCOCC4)c3s2)CC1 [Pictilisib] (partner 1 µM)
Outline: as §1

Dasatinib + Linsitinib = compound: Cc1nc(Nc2ncc(C(=O)Nc3c(C)cccc3Cl)s2)cc(N2CCN(CCO)CC2)n1 [Dasatinib] + C[C@]1(O)C[C@@H](c2nc(-c3ccc4ccc(-c5ccccc5)nc4c3)c3c(N)nccn32)C1 [Linsitinib] (partner 1 µM)
Outline: as §1

Cell Line | relative viability (XMD13-2 + Lapatinib; first compound 0.05 µM) | relative viability (XMD13-2 + Lapatinib; first compound 0.1581 µM) | relative viability (XMD13-2 + Lapatinib; first compound 0.5 µM) | relative viability (XMD13-2 + Lapatinib; first compound 1.581 µM) | relative viability (XMD13-2 + Lapatinib; first compound 5 µM) | relative viability (ALW-II-49-7 + Alpelisib; first compound 0.08 µM) | relative viability (ALW-II-49-7 + Alpelisib; first compound 0.253 µM) | relative viability (ALW-II-49-7 + Alpelisib; first compound 0.8 µM) | relative viability (ALW-II-49-7 + Alpelisib; first compound 2.53 µM) | relative viability (ALW-II-49-7 + Alpelisib; first compound 8 µM) | relative viability (Dasatinib + Pictilisib; first compound 0.005 µM) | relative viability (Dasatinib + Pictilisib; first compound 0.01581 µM) | relative viability (Dasatinib + Pictilisib; first compound 0.05 µM) | relative viability (Dasatinib + Pictilisib; first compound 0.1581 µM) | relative viability (Dasatinib + Pictilisib; first compound 0.5 µM) | relative viability (Dasatinib + Linsitinib; first compound 0.005 µM) | relative viability (Dasatinib + Linsitinib; first compound 0.01581 µM) | relative viability (Dasatinib + Linsitinib; first compound 0.05 µM) | relative viability (Dasatinib + Linsitinib; first compound 0.1581 µM) | relative viability (Dasatinib + Linsitinib; first compound 0.5 µM)
NCI-H2347 | 0.987 | 0.93 | 0.912 | 1.04 | 0.973 | 1.08 | 0.98 | 0.986 | 0.869 | 0.873 | 0.419 | 0.328 | 0.316 | 0.493 | 0.347 | 1.01 | 0.935 | 0.943 | 0.402 | 0.159
NCI-H2405 | 1.18 | 1 | 0.95 | 0.957 | 1.09 | 0.741 | 0.829 | 0.743 | 0.248 | 0.753 | 0.353 | 0.294 | 0.261 | 0.197 | 0.16 | 0.699 | 0.392 | 0.336 | 0.253 | 0.167
NCI-H3122 | 1.04 | 1.03 | 0.99 | 0.982 | 0.848 | 0.824 | 0.651 | 0.865 | 0.873 | 0.981 | 0.704 | 0.753 | 0.755 | 0.614 | 0.445 | 1.03 | 1.05 | 1.03 | 0.762 | 0.815
PC-3 [JPC-3] | 0.453 | 0.467 | 0.437 | 0.498 | 0.426 | 1.02 | 0.989 | 0.987 | 1.09 | 1.02 | 0.881 | 0.676 | 0.734 | 0.706 | 0.317 | 0.976 | 0.97 | 1.07 | 1.06 | 0.633
PC-14 | 0.38 | 0.324 | 0.39 | 0.337 | 0.345 | 0.833 | 0.541 | 0.838 | 0.911 | 0.828 | 0.631 | 0.458 | 0.529 | 0.232 | 0.0479 | 1 | 0.968 | 0.93 | 0.546 | 0.281
RERF-LC-KJ | 0.912 | 0.841 | 0.858 | 0.816 | 0.78 | 0.785 | 0.567 | 0.754 | 0.745 | 0.882 | 0.543 | 0.518 | 0.53 | 0.398 | 0.403 | 0.896 | 0.845 | 0.862 | 0.67 | 0.634
SK-LU-1 | 1.14 | 0.97 | 0.971 | 0.707 | 0.536 | 0.966 | 1.01 | 1.11 | 0.674 | 0.558 | 0.369 | 0.312 | 0.244 | 0.201 | 0.174 | 0.636 | 0.445 | 0.435 | 0.261 | 0.242
SK-MES-1 | 0.578 | 0.461 | 0.519 | 0.477 | 0.514 | 0.852 | 0.802 | 0.891 | 0.779 | 0.753 | 0.329 | 0.287 | 0.242 | 0.165 | 0.16 | 1.11 | 1.08 | 0.937 | 0.412 | 0.219
SW 1573 | 1.13 | 1.2 | 1.28 | 1.06 | 1.1 | 0.911 | 0.684 | 0.914 | 0.947 | 0.665 | 0.431 | 0.426 | 0.379 | 0.265 | 0.203 | 0.747 | 0.648 | 0.6 | 0.425 | 0.435
